Patent US9340478B2, “Cooling agent and TRPM8 activator” (Kao Corporation, priority 2011, dated 2016)

What follows are compounds tested against T1, human TRPM8 (Homo sapiens, UniProt Q7Z2W7) (assay: TRPM8 activating action, fluorescent calcium imaging in HEK293 cell line stably expressing human TRPM8). Conditions: HEK293 cells expressing human TRPM8; Fluo4 calcium imaging at 32° C.; 1 nM to 100 μM; Hill's equation fit.
T1 construct: A full-length human TRPM8 gene was amplified from human prostatic tissue total RNA; expressed in transfected cells; host or cells: HEK293
Type: cell-based
Protocol: The EC50 value in connection with the TRPM8 activating action of a test sample was measured according to the following procedure.
(1) Production of Cell Line Stably Expressing Human TRPM8
In order to produce a HEK293 cell line stably expressing human TRPM8, cloning of human TRPM8 gene was carried out. A full-length human TRPM8 gene was amplified from human prostatic tissue total RNA (manufactured by Cosmobio Co., Ltd.) using an RT-PCR method.
The PCR product thus obtained was cloned into an entry vector pENTR-D/TOPO (manufactured by Invitrogen, Inc.), and then was sub-cloned into pCDNA3.2-V5/DEST (manufactured by Invitrogen, Inc.), The vector was transduced into HEK293 cells by means of LIPOFECTAMINE 2000 (manufactured by Invitrogen, Inc.). The transduced cells were proliferated in DMEM medium containing 450 μg/mL of G-418 (Promega Corp.) and screened.
Measurement of the activity of TRPM8 transduced into HEK293 cells was carried out by a fluorescent calcium imaging method.
First, the cultured TRPM8 expressing cells were seeded (30,000 cells/well) in a 96-well plate coated with poly-D-lysine (manufactured by BD Biosciences Co.), the cells were incubated overnight at 37° C., and then the culture fluid was removed. Fluo4-AM liquid (manufactured by Dojindo Molecular Technologies, Inc.; CALCIUM KIT II) was added thereto, and the cells were incubated for 30 to 60 minutes at 37° C. Thereafter, the 96-well plate was mounted on a fluorescence plate reader (FDSS3000; manufactured by Hamamatsu Photonics K.K.), and while the temperature inside the apparatus chamber was maintained at 32° C., a fluorescent image made by Fluo4 when excited at an excitation wavelength of 480 nm, was captured at a detection wavelength of 520 nm using a CCD camera.
Measurement was carried out at every one second for 4 minutes in total. 15 seconds after the initiation of measurement, a test sample (prepared by dissolving each of the compounds indicated in the following Table 1 in ethanol) was added through a dispenser equipped in FDSS3000, and the activity of TRPM8 was evaluated based on the change in fluorescence intensity.
(3) Evaluation of TRPM8 Activation
For the TRPM8 activity, the intrinsic fluorescence was excluded using the following formula, so as to eliminate the influence of intrinsic fluorescence caused by the test sample. Fluorescence intensity excluding intrinsic fluorescence(Fsub)=(Fluorescence intensity of TRPM8 expressing cells at each time point)−{(fluorescence intensity of HEK293 cells at each time point)−(fluorescence intensity of HEK293 cells at the time of measurement initiation)}
Furthermore, the TRPM8 activating action induced by each sample was evaluated using the peak of the fluorescence intensity ratio after the addition of the test sample. The fluorescence intensity ratio was calculated using the following formula. Fluorescence intensity ratio=Fsub at each time point/at the time of measurement initiation
The evaluation was carried out using two wells per each treated group, and the average value was used.
The TRPM8 activating action of each test sample was evaluated at a final concentration in the range of 1 nM to 100 μM, and a dose dependent curve approximating Hill's equation by the least square method was determined.

T1 sequence (Q7Z2W7 whole entry): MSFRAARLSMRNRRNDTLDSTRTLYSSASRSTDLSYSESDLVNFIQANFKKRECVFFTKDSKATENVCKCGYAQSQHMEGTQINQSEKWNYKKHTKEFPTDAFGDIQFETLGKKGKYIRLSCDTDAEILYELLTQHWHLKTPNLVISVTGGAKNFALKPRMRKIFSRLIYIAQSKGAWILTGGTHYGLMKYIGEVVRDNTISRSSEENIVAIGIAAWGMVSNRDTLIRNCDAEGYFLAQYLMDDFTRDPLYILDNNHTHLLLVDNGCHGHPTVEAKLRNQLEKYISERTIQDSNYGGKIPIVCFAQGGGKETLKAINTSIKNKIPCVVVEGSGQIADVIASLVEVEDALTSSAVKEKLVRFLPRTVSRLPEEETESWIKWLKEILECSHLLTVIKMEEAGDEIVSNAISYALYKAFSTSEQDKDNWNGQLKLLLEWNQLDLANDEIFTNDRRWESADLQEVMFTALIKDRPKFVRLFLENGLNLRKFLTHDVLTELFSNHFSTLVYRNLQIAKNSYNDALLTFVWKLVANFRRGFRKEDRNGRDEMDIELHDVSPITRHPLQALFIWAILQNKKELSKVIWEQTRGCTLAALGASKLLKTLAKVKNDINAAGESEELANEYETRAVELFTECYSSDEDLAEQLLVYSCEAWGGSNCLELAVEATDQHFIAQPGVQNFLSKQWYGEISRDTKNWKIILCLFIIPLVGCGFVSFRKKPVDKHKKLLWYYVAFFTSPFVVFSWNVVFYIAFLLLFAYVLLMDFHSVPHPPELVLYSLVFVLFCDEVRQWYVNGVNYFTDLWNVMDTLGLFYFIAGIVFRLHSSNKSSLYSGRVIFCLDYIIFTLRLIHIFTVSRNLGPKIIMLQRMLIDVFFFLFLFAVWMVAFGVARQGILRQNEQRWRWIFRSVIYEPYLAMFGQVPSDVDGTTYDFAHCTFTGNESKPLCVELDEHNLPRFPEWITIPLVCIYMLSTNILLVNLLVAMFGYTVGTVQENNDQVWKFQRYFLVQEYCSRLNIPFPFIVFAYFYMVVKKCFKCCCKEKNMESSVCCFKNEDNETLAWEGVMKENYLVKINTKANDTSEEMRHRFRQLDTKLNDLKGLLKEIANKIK

| EC50 | SMILES |
| --- | --- |
| 2.41 µM | C=CCc1cc(OC)c(OC(C)C(OC)c2ccc(O)c(OC)c2)c(OC)c1 (mixture of isomers) [Mixture (18), Δ8′-4-hydroxy-3,3′,5′,7-tetramethoxy-8-O-4′-neolignan] |
| 1.57 µM | C=CCc1cc(OC)c(OC(C)C(OCC)c2ccc(O)c(OC)c2)c(OC)c1 (single isomer, unassigned) [Erythro-form (1), erythro-Δ8′-7-ethoxy-4-hydroxy-3,3′,5′-trimethoxy-8-O-4′-neolignan] |
| 0.199 µM | C=CCc1cc(OC)c(OC(C)C(OCC)c2ccc(O)c(OC)c2)c(OC)c1 (single isomer, unassigned) [Threo-form (2), threo-Δ8′-7-ethoxy-4-hydroxy-3,3′,5′-trimethoxy-8-O-4′-neolignan] |
| 0.61 µM | C=CCc1cc(OC)c(O[C@H](C)[C@H](OCC)c2ccc(O)c(OC)c2)c(OC)c1 [7R8R-form (2a), (7R,8R)-Δ8′-7-ethoxy-4-hydroxy-3,3′,5′-trimethoxy-8-O-4′-neolignan] |
| 1.23 µM | C=CCc1cc(OC)c(O[C@@H](C)[C@H](OCC)c2ccc(O)c(OC)c2)c(OC)c1 [7R8S-form (1a), (7R,8S)-Δ8′-7-ethoxy-4-hydroxy-3,3′,5-trimethoxy-8-O-4′-neolignan] |
| 0.087 µM | C=CCc1cc(OC)c(O[C@@H](C)[C@@H](OCC)c2ccc(O)c(OC)c2)c(OC)c1 [7S8S-form (2b), (7S,8S)-Δ8′-7-ethoxy-4-hydroxy-3,3′,5′-trimethoxy-8-O-4′-neolignan] |
| 0.075 µM | C=CCc1cc(OC)c(OC(C)C(OC(C)C)c2ccc(O)c(OC)c2)c(OC)c1 (centres unmarked) [Mixture (24), Δ8′-7-isopropoxy-4-hydroxy-3,3′,5′-trimethoxy-8-O-4′-neolignan] |
| 0.061 µM | C=CCc1cc(OC)c(OC(C)C(OCCCCCCCCCC)c2ccc(O)c(OC)c2)c(OC)c1 (centres unmarked) [Mixture (28), Δ8′-7-Decoxy-4-hydroxy-3,3′,5′-trimethoxy-8-O-4′-neolignan] |
| 0.144 µM | C=CCc1cc(OC)c(OC(C)C(OCc2ccccc2)c2ccc(O)c(OC)c2)c(OC)c1 (centres unmarked) [Mixture (30), Δ8′-7-Benzyloxy-4-hydroxy-3,3′,5′-trimethoxy-8-O-4′-neolignan] |
| 56.2 µM | CCOC(c1ccc(O)c(OC)c1)C(C)Oc1ccccc1OC (centres unmarked) [Mixture (38), 4-[1-ethoxy-2-(2-methoxyphenoxy)propyl]-2-methoxyphenol] |

The remaining lines, values behind:

| SMILES | EC50 |
| --- | --- |
| C=CCc1cc(OC)c(O[C@@H](C)[C@H](OCCCC)c2ccc(O)c(OC)c2)c(OC)c1 (relative stereo) [Erythro-form (19), Erythro-Δ8′-7-butoxy-4-hydroxy-3,3′,5′-trimethoxy-8-O-4′-neolignan] | 0.581 µM |
| C=CCc1cc(OC)c(O[C@@H](C)[C@H](OC(C)=O)c2ccc(O)c(OC)c2)c(OC)c1 (relative stereo) [Erythro-form (23), erythro-Δ8′-7-acetyl-4-hydroxy-3,3′,5′-trimethoxy-8-O-4′-neolignan] | 2.6 µM |
| C=CCc1cc(OC)c(O[C@H](C)[C@H](OCCCC)c2ccc(O)c(OC)c2)c(OC)c1 (relative stereo) [Threo-form (20), Threo-Δ8′-7-butoxy-4-hydroxy-3,3′,5′-trimethoxy-8-O-4′-neolignan] | 0.043 µM |
| C=CCc1cc(OC)c(O[C@H](C)[C@@H](OCC)c2ccc(O)c(OC)c2)c(OC)c1 [7S8R-form (1b), (7S,8R)-Δ8′-7-ethoxy-4-hydroxy-3,3′,5′-trimethoxy-8-O-4′-neolignan] | 0.981 µM |
| C=CCc1cc(OC)c(OC(C)C(OCC)c2ccc(O)c(OC)c2)c(OC)c1 (centres unmarked) [Mixture (15), Δ8′-7-ethoxy-4-hydroxy-3,3′,5′-trimethoxy-8-O-4′-neolignan] | 0.309 µM |
| C=CCc1cc(OC)c(OC(C)C(OCC(C)C)c2ccc(O)c(OC)c2)c(OC)c1 (centres unmarked) [Mixture (25), Δ8′-7-Isobutoxy-4-hydroxy-3,3′,5′-trimethoxy-8-O-4′-neolignan] | 0.113 µM |
| C=CCc1cc(OC)c(OC(C)C(OCCCCCC)c2ccc(O)c(OC)c2)c(OC)c1 (centres unmarked) [Mixture (26), Δ8′-7-Hexoxy-4-hydroxy-3,3′,5′-trimethoxy-8-O-4′-neolignan] | 0.218 µM |
| C=CCc1cc(OC)c(OC(C)C(OCCCCCCCC)c2ccc(O)c(OC)c2)c(OC)c1 (centres unmarked) [Mixture (27), Δ8′-7-Octoxy-4-hydroxy-3,3′,5′-trimethoxy-8-O-4′-neolignan] | 0.088 µM |
| C=CCc1cc(OC)c(OC(C)C(OC2CCCCC2)c2ccc(O)c(OC)c2)c(OC)c1 (centres unmarked) [Mixture (29), Δ8′-7-Cyclohexoxy-4-hydroxy-3,3′,5′-trimethoxy-8-O-4′-neolignan] | 0.045 µM |
| C=CCc1cc(OC)c(OC(C)C(OC(C)(C)C)c2ccc(O)c(OC)c2)c(OC)c1 (centres unmarked) [Mixture (31), Δ8′-7-t-Butoxy-4-hydroxy-3,3′,5′-trimethoxy-8-O-4′-neolignan] | 0.04 µM |
| C=CCc1cc(OC)c(OC(C)C(OCCOCCCC)c2ccc(O)c(OC)c2)c(OC)c1 (centres unmarked) [Mixture (32), Δ8′-7-Oxybutoxyethyl-4-hydroxy-3,3′,5′-trimethoxy-8-O-4′-neolignan] | 0.131 µM |
| C=CCc1ccc(OC(C)Cc2ccc(O)c(OC)c2)c(OC)c1 (centres unmarked) [Mixture (34), Δ8′-4-Hydroxy-3,3′-dimethoxy-8-O-4′-neolignan] | 5.85 µM |
| C/C=C/c1ccc(OC(C)C(OCC)c2ccc(O)c(OC)c2)c(OC)c1 (centres unmarked) [Mixture (36), Δ8′-7-ethoxy-4-hydroxy-3,3′-dimethoxy-1′-propenyl-8-O-4′-neolignan] | 12.2 µM |
